Results from patent US10457710B2, “Antimicrobial peptides, their variants and uses” (priority 2015, dated 2019).
Where a SMILES comes first, the peptide text is derived from it. [ ]: non-standard residue; d: D form.

Tests used:
Type in all cases: cell-based
[1] = test system: clinical strains of Serratia marcescens; assay: MIC, microdilution, clinical strains; settings: 0.02% BSA, 0.2% acetic acid
Method in brief: (§1)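 Overnight MH agar colonies were suspended in MH broth to 5.0×10^5 cfu/ml, mixed with serial peptide dilutions (0.125–128 μg/ml) and incubated at 37° C for 20 to 24 hours. Yeast MICs were run the same way in potato dextrose broth, and wells were scored visually.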

[2] = test system: clinical strains of P. aeruginosa; assay: MIC, microdilution, clinical strains; settings: 0.02% BSA, 0.2% acetic acid
Method in brief: as §1

[3] = test system: clinical strains of S. aureus; assay: MIC, microdilution, clinical strains; settings: 0.02% BSA, 0.2% acetic acid
Method in brief: as §1

[4] = test system: clinical strains of E. cloacae; assay: MIC, microdilution, clinical strains; settings: 0.02% BSA, 0.2% acetic acid
Method in brief: as §1

[5] = test system: clinical strains of K. pneumoniae; assay: MIC, microdilution, clinical strains; settings: 0.02% BSA, 0.2% acetic acid
Method in brief: as §1

[6] = test system: clinical strains of Proteus mirabilis; assay: MIC, microdilution, clinical strains; settings: 0.02% BSA, 0.2% acetic acid
Method in brief: as §1

[7] = test system: clinical strains of E. coli; assay: MIC, microdilution, clinical strains; settings: microdilution, Muller Hinton broth-cation adjusted, 0.02% BSA, 0.2% acetic acid
Method in brief: as §1

[8] = test system: clinical strains of S. pneumoniae; assay: MIC, microdilution, clinical strains; settings: 0.02% BSA, 0.2% acetic acid
Method in brief: as §1

C. quillermondiae = assay: MIC, clinical yeast strains; set-up: Minimum inhibitory concentration: unit: μg/ml; settings: C. quillermondiae clinical yeast strain 1
Method in brief: (§2)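 Clinical isolates were exposed to peptide concentrations from 0.125 up to 128 μg/ml at a starting density of 5.0×10^5 cfu/ml. Antifungal testing took place in potato dextrose broth at 37° C for 20 to 24 hours, and the end point was the absence of visible growth.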

C. parapsilosis = assay: MIC, clinical yeast strains
Method in brief: as §2

C. glabrata = assay: MIC, clinical yeast strains
Method in brief: as §2

Candida albicans = assay: MIC, clinical yeast strains
Method in brief: as §2

[9] = test system: clinical strains of A. johnsonii; assay: MIC, microdilution, clinical strains; set-up: unit: μg/ml; settings: Acinetobacter johnsonii strain 1, Muller Hinton broth-cation adjusted, 0.02% BSA, 0.2% acetic acid
Method in brief: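 Broth microdilution with inocula adjusted to 5.0×10^5 cfu/ml; peptides tested at 0.125 to 128 μg/ml and incubated at 37° C for 20 to 24 hours. Bacteria were grown in Mueller Hinton broth, yeasts in potato dextrose broth. MIC was the lowest concentration showing no visible growth.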

[10] = test system: clinical strains of Acinetobacter baumannii; assay: MIC, microdilution, clinical strains; set-up: unit: μg/ml; settings: 0.02% BSA, 0.2% acetic acid
Method in brief: as §1

Measured: Minimum inhibitory concentration

CC(C)C[C@@H](NC(=O)[C@H](N)CCCNC(=N)N)C(=O)N[C@H](CCCCN)C(=O)N[C@H](Cc1c[nH]c2ccccc12)C(=O)N[C@H](Cc1ccccc1)C(=O)N[C@H](CC(C)C)C(=O)N[C@H](CC(C)C)C(=O)N[C@H](Cc1ccccc1)C(=O)N[C@H](CCCNC(=N)N)C(=O)N[C@H](CCCCN)C(=O)N[C@H](CCCNC(=N)N)C(=O)O [Chain308D] (H-[dR][dL][dK][dW][dF][dL][dL][dF][dR][dK][dR]-OH)
1: [3]; Staphylococcus aureus strain 1, Muller Hinton broth-cation adjusted | [3]; Staphylococcus aureus strain 3, Muller Hinton broth-cation adjusted | [7]; Escherichia coli strain 1 | [7]; Escherichia coli strain 3 | [7]; Escherichia coli strain 4 | [7]; Escherichia coli strain 5
128: [1]; Serratia marcescens strain 1, Muller Hinton broth-cation adjusted | [1]; Serratia marcescens strain 2, Muller Hinton broth-cation adjusted | [1]; Serratia marcescens strain 5, Muller Hinton broth-cation adjusted | [6]; Proteus mirabilis strain 3, Muller Hinton broth-cation adjusted
8: [2]; Pseudomonas aeruginosa strain 1, Muller Hinton broth-cation adjusted | [2]; Pseudomonas aeruginosa strain 2, Muller Hinton broth-cation adjusted | [8]; Streptococcus pneumoniae strain 1, Muller Hinton broth-cation adjusted | [8]; Streptococcus pneumoniae strain 3, Muller Hinton broth-cation adjusted | C. parapsilosis; C. parapsilosis clinical yeast strain 1 | C. parapsilosis; C. parapsilosis clinical yeast strain 2 | C. parapsilosis; C. parapsilosis clinical yeast strain 3
0.5: [7]; Escherichia coli strain 2
32: [6]; Proteus mirabilis strain 2, Muller Hinton broth-cation adjusted
64: [1]; Serratia marcescens strain 3, Muller Hinton broth-cation adjusted
2: [3]; Staphylococcus aureus strain 2, Muller Hinton broth-cation adjusted | [3]; Staphylococcus aureus strain 4, Muller Hinton broth-cation adjusted | [3]; Staphylococcus aureus strain 5, Muller Hinton broth-cation adjusted | [4]; Enterobacter cloacae strain 1, Muller Hinton broth-cation adjusted | [4]; Enterobacter cloacae strain 2, Muller Hinton broth-cation adjusted | [4]; Enterobacter cloacae strain 3, Muller Hinton broth-cation adjusted | [4]; Enterobacter cloacae strain 4, Muller Hinton broth-cation adjusted | [4]; Enterobacter cloacae strain 5, Muller Hinton broth-cation adjusted | [8]; Streptococcus pneumoniae strain 4, Muller Hinton broth-cation adjusted | [10]; Acinetobacter baumannii strain 4, Muller Hinton broth-cation adjusted | [10]; Acinetobacter baumannii strain 5, Muller Hinton broth-cation adjusted
16: C. glabrata; C. glabrata clinical yeast strain 1 | C. glabrata; C. glabrata clinical yeast strain 2 | C. glabrata; C. glabrata clinical yeast strain 3 | C. glabrata; C. glabrata clinical yeast strain 4 | Candida albicans; Candida albicans clinical yeast strain 1 | Candida albicans; Candida albicans clinical yeast strain 2 | Candida albicans; Candida albicans clinical yeast strain 3 | Candida albicans; Candida albicans clinical yeast strain 4 | Candida albicans; Candida albicans clinical yeast strain 5
4: [2]; Pseudomonas aeruginosa strain 3, Muller Hinton broth-cation adjusted | [2]; Pseudomonas aeruginosa strain 4, Muller Hinton broth-cation adjusted | [2]; Pseudomonas aeruginosa strain 5, Muller Hinton broth-cation adjusted | [5]; Klebsiella pneumoniae strain 1, Muller Hinton broth-cation adjusted | [5]; Klebsiella pneumoniae strain 2, Muller Hinton broth-cation adjusted | [5]; Klebsiella pneumoniae strain 3, Muller Hinton broth-cation adjusted | [5]; Klebsiella pneumoniae strain 4, Muller Hinton broth-cation adjusted | [5]; Klebsiella pneumoniae strain 5, Muller Hinton broth-cation adjusted | [8]; Streptococcus pneumoniae strain 2, Muller Hinton broth-cation adjusted | [8]; Streptococcus pneumoniae strain 5, Muller Hinton broth-cation adjusted | C. quillermondiae | C. parapsilosis; C. parapsilosis clinical yeast strain 4 | [9] | [10]; Acinetobacter baumannii strain 1, Muller Hinton broth-cation adjusted | [10]; Acinetobacter baumannii strain 2, Muller Hinton broth-cation adjusted | [10]; Acinetobacter baumannii strain 3, Muller Hinton broth-cation adjusted
>128: [1]; Serratia marcescens strain 4, Muller Hinton broth-cation adjusted | [6]; Proteus mirabilis strain 1, Muller Hinton broth-cation adjusted | [6]; Proteus mirabilis strain 4, Muller Hinton broth-cation adjusted | [6]; Proteus mirabilis strain 5, Muller Hinton broth-cation adjusted
